Results from ChEMBL document CHEMBL3769328, “Design and optimization of tricyclic gamma-secretase modulators” (Bioorg Med Chem Lett, 2016).
Calls of active or inactive are those of the source. No cut-off for these calls is given here.

How the values were obtained:
Gamma-secretase [1] = assay: Modulation of gamma secretase in human H4 cells assessed as inhibition of amyloid beta (1 to 42) production; type: cell-based
Cytochrome P450 3A4 = Cytochrome P450 3A4 (Homo sapiens, UniProt P08684); assay: Inhibition of CYP3A4 (unknown origin) by fluorescence assay
[2] = molecular target: Voltage-gated inwardly rectifying potassium channel KCNH2 (Homo sapiens, UniProt Q12809); assay: Inhibition of human ERG by thallium flux assay
Liver microsome = assay: Drug metabolism in human liver microsomes; type: ADME
[3] = Plasma protein binding in human; type: ADME, cell-free; details: read-out: PPB
[4] = Plasma protein binding in mouse; type: ADME, cell-free; details: read-out: PPB
[5] = Plasma concentration in 3x transgenic Alzheimer's disease mouse model at 1 mg/kg, po measured after 3 hrs; type: ADME, organism-based; details: 3x transgenic Alzheimer's disease model
[6] = Plasma concentration in 3x transgenic Alzheimer's disease mouse model at 3 mg/kg, po measured after 3 hrs; type: ADME, organism-based; details: 3x transgenic Alzheimer's disease model
[7] = Plasma concentration in 3x transgenic Alzheimer's disease mouse model at 10 mg/kg, po measured after 3 hrs; type: ADME, organism-based; details: 3x transgenic Alzheimer's disease model
[8] = Plasma concentration in 3x transgenic Alzheimer's disease mouse model at 30 mg/kg, po measured after 3 hrs; type: ADME, organism-based; details: 3x transgenic Alzheimer's disease model
[9] = Plasma concentration in 3x transgenic Alzheimer's disease mouse model at 100 mg/kg, po measured after 3 hrs; type: ADME, organism-based; details: 3x transgenic Alzheimer's disease model
[10] = Total drug level in 3x transgenic Alzheimer's disease mouse brain at 30 mg/kg, po measured after 3 hrs; type: ADME, organism-based; details: 3x transgenic Alzheimer's disease model, read-out: Drug uptake
Mus musculus [11] = assay: Effect on total amyloid beta production in 3x transgenic mouse model of Alzheimer's disease at 1 to 100 mg/kg, po measured after 3 hrs by ELISA; type: ADME, organism-based; details: in vivo
[12] = Ratio of total drug level in brain to plasma in 3x transgenic mouse model of Alzheimer's disease at 30 mg/kg, po measured after 3 hrs; type: ADME, organism-based; details: 3x transgenic Alzheimer's disease model, read-out: BPR
Mus musculus [13] = assay: Anti-alzheimer activity in 3x transgenic mouse model of Alzheimer's disease assessed as amyloid beta (1 to 42) level in brain at 1 mg/kg, po measured after 3 hrs by ELISA relative to control; type: functional
Mus musculus [14] = assay: Anti-alzheimer activity in 3x transgenic mouse model of Alzheimer's disease assessed as amyloid beta (1 to 42) level in brain at 3 mg/kg, po measured after 3 hrs by ELISA relative to control; type: functional
Mus musculus [15] = assay: Anti-alzheimer activity in 3x transgenic mouse model of Alzheimer's disease assessed as amyloid beta (1 to 42) level in brain at 10 mg/kg, po measured after 3 hrs by ELISA relative to control; type: functional
Mus musculus [16] = assay: Anti-alzheimer activity in 3x transgenic mouse model of Alzheimer's disease assessed as amyloid beta (1 to 42) level in brain at 30 mg/kg, po measured after 3 hrs by ELISA relative to control; type: functional
Mus musculus [17] = assay: Anti-alzheimer activity in 3x transgenic mouse model of Alzheimer's disease assessed as amyloid beta (1 to 42) level in brain at 100 mg/kg, po measured after 3 hrs by ELISA relative to control; type: functional
Gamma-secretase [18] = assay: Modulation of gamma secretase in human H4 cells transfected with APP751 SWE clone 8.20 mutant assessed as inhibition of amyloid beta (1 to 42) production after 19 hrs; type: cell-based
Mus musculus [19] = organism: Mus musculus; details: Brain, 30 mg/kg

Cytochrome P450 3A4, sequence (P08684 whole entry): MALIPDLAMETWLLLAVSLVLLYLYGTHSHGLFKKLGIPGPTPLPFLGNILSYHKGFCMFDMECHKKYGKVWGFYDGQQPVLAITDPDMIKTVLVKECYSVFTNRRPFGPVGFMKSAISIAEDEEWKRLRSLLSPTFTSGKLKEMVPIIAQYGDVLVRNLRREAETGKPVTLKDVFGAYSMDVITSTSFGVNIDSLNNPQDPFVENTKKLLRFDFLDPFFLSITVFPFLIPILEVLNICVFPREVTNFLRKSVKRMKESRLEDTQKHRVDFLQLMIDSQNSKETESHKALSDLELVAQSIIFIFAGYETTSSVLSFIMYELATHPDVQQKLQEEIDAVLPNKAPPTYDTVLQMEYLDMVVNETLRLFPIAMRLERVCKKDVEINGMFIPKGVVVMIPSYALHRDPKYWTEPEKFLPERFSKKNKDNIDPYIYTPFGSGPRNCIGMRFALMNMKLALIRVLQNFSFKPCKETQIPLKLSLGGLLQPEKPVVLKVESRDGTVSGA
Voltage-gated inwardly rectifying potassium channel KCNH2, sequence (Q12809 whole entry): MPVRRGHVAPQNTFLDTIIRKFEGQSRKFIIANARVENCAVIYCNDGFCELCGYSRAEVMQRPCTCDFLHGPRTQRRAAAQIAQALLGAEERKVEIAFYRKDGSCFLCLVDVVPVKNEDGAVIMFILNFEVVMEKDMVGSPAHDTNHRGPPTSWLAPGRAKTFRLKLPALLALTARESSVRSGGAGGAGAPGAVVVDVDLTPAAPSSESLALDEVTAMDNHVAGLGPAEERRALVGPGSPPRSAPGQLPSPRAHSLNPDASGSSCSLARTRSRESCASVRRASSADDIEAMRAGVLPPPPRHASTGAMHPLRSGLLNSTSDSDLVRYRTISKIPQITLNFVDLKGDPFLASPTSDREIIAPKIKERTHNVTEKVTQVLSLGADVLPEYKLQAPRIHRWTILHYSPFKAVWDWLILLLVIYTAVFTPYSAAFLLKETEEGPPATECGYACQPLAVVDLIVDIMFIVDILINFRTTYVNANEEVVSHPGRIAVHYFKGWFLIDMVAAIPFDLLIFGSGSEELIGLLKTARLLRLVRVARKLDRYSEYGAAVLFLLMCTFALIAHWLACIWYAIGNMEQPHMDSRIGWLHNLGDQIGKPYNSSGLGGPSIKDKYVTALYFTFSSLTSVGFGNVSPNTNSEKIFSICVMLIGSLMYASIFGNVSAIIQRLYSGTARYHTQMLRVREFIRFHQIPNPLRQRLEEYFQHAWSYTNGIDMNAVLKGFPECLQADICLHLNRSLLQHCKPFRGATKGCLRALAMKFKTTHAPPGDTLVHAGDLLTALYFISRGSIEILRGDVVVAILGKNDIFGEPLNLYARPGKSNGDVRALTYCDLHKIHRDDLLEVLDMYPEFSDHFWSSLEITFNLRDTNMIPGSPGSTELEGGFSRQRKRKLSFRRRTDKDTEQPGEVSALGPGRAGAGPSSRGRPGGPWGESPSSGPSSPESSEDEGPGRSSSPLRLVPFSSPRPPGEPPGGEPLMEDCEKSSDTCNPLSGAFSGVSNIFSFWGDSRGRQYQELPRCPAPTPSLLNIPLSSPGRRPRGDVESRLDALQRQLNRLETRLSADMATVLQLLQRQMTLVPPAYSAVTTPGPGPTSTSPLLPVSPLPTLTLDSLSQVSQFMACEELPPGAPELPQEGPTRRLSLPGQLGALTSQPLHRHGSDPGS

Structure (SMILES)	IC50 (Gamma-secretase [1]; read-out: IC50)	IC50 (Cytochrome P450 3A4)	also measured
Cc1cn(-c2cc3c(cc2F)Nc2nc(Cc4ccccc4)ccc2C(=O)N3)cn1	820 nM	30 nM	
Cc1cn(-c2ccc3c(c2)CCc2ccc(Cc4ccc(F)cc4)nc2C3=O)cn1	1000 nM	300 nM	
N#Cc1ccc2c(c1)CCc1sc(Cc3ccccc3)nc1N2	1200 nM		
Cc1ncn(-c2ccc3c(c2)CCc2cnn(Cc4ccccc4)c2N3)n1			IC50 (Gamma-secretase [1]): Not Active
Cc1cncn1-c1ccc2c(c1)CCc1sc(Cc3ccc(F)cc3)nc1N2	1800 nM		
CNc1nc(Nc2ccc(-n3cncn3)c(OC)c2)nc(-c2ccccc2)n1			IC50 (Gamma-secretase [18]): 180 nM
CNc1nc(Cc2ccccc2)nc(Nc2ccc(-n3cnc(C)c3)c(OC)c2)n1			IC50 (Gamma-secretase [18]): 29 nM
COc1ccc(Cc2nc3c(n2C)CCc2cc(-n4cnc(C)c4)ccc2C3=O)cc1	1100 nM		
Clc1cn(-c2ccc3c(c2)CCc2cnn(Cc4ccccc4)c2N3)cn1			IC50 (Gamma-secretase [1]): Not Active
Cc1ncn(-c2ccc3c(c2)NC(=O)c2ccc(Cc4ccccc4)nc2N3)n1	460 nM	2000 nM	

Continued by falling IC50 (Gamma-secretase [1]; read-out: IC50), values first:

IC50 (Gamma-secretase [1]; read-out: IC50)	IC50 (Cytochrome P450 3A4)	Structure (SMILES)	also measured
380 nM	300 nM	COc1ccc(Cc2nc3c(n2C)CCc2cc(-c4ccnc(C)c4)ccc2C3=O)cc1	
300 nM	300 nM	COc1ccc(Cc2nc3c(o2)CCc2cc(-c4ccnc(C)c4)ccc2C3=O)cc1	
200 nM	> 13000 nM	CC(c1ccccc1)c1ccc2c(n1)Nc1ccc(-n3cnc(Cl)c3)cc1NC2=O (racemic)	
190 nM	> 13000 nM	O=C1Nc2cc(-n3cnc(Cl)c3)ccc2Nc2nc(Cc3ccccc3)ccc21	
180 nM	300 nM	Cc1ncn(-c2ccc3c(c2)CCc2cn(Cc4ccccc4)nc2N3)n1	
140 nM		Clc1cn(-c2ccc3c(c2)CCc2sc(Cc4ccccc4)nc2N3)cn1	
140 nM		Cc1ncn(-c2ccc3c(c2)CCc2sc(Cc4ccccc4)nc2N3)n1	
120 nM		Cc1cc(-c2ccc3c(c2)CCc2sc(Cc4ccc(F)c(F)c4)nc2N3)ccn1	
100 nM	200 nM	Cc1cn(-c2ccc3c(c2)NC(=O)c2ccc(C(C)c4ccccc4)nc2N3)cn1 (racemic)	
80 nM		Cc1cc(-c2ccc3c(c2)CCc2sc(Cc4ccc(F)cc4)nc2N3)ccn1	
50 nM		Cc1cc(-c2ccc3c(c2)CCc2sc(Cc4ccccc4)nc2N3)ccn1	
50 nM	150 nM	Cc1cn(-c2ccc3c(c2)NC(=O)c2ccc(Cc4ccccc4)nc2N3)cn1	inhibition (Mus musculus [19]): inactive
40 nM	300 nM	Clc1cn(-c2ccc3c(c2)CCc2cn(Cc4ccccc4)nc2N3)cn1	
35 nM	700 nM	Cc1cn(-c2ccc3c(c2)CCc2sc(Cc4ccccc4)nc2N3)cn1	inhibition (INH) [2]: Not Active; Drug metabolism (Liver microsome): 0.035 nmol/min/mg; fraction unbound [3]: < 0.002; fraction unbound [4]: < 0.002; concentration at 3 h [5]: 0.21 µM; concentration at 3 h [6]: 0.48 µM; concentration at 3 h [7]: 3.8 µM; concentration at 3 h [8]: 8 µM; concentration at 3 h [9]: 25 µM; concentration at 3 h [10]: 8.9 µM; Activity (Mus musculus [11]): Non-toxic; Kp at 3 h [12]: 1.1; Activity (Mus musculus [13]): 110%; Activity (Mus musculus [14]): 100%; Activity (Mus musculus [15]): 70%; Activity (Mus musculus [16]): 60%; Activity (Mus musculus [17]): 50%
20 nM		Cc1cn(-c2ccc3c(c2)CCc2sc(Cc4ccc(F)cc4)nc2N3)cn1	
